One experiment deals with SUDHL-6. Description: In situ mitochondrial cytochrome c release assay, semi-permeabilized SUDHL-6. Type of experiment: cell-based, human. To be noted: 20 uM; BAX/BAK-functional cell line. The text has this: (§1) The on-target activity of compound II-19 was validated. Changes in mitochondrial integrity were observed utilizing anti-cytochrome c conjugated to Alexa488 (BD). When the mitochondria are intact, they retain cytochrome c and have bright, punctate staining with the antibody whereas cells with compromised mitochondrial integrity will lose cytochrome c and will not stain with the antibody. This can be observed by microscopy as well as measured by a shift in fluorescence on the FL1 channel of a flow cytometer.
(§2) The selective response of mitochondria in semi-permeabilized cell lines to the compounds was observed. The assay was adapted from (Campos et al. (2006) Cytometry Part A. 69 (A):515-523).
(§3) Suspension cell lines SUDHL10 and SUDHL6 were grown in RPMI, washed once in 1×PBS and re-suspended at a concentration of 2e6/ml in assay buffer with 0.0025% Digitonin. Assay buffer; 300 mM Trehalose, 10 mM HEPES-KOH pH 7.7, 80 mM KCl, 1 mM EGTA, 1 mM EDTA, 0.1% BSA, 5 mM Succinate. Cells are incubated with test and control compounds at 10^6 cells/treatment for 1 hour at room temperature. Samples are fixed with 4% formaldehyde in PBS for 20 minutes, washed once in PBS, and blocked with 2% FBS/0.5% TritonX-100 in PBS. Samples are re-suspended in blocking buffer with 1:250 anti-cytochrome c conjugated to Alexa488 (BD Cat#56028) for 1 hour at 4° C., washed once with blocking buffer and re-suspended in 200 ul PBS. Cytochrome c loss was measured by microscopy. At least 100 cells per treatment were counted and scored as positive for cytochrome c loss if they lacked staining. In both methods DMSO was calculated as 0% cytochrome c loss and the Bim response for DHL6 was used to determine 100% cytochrome c loss.

A further experiment relates to SUDHL-10. Description: In situ mitochondrial cytochrome c release assay, semi-permeabilized SUDHL-10. To be noted: 20 uM; BAX/BAK-deficient cell line. The experiment is classed as cell-based, human.
Excerpt: as §1, §2, §3

For experiment [1], the system named is mitochondria from NCI 929. The experiment in a line: BH3 profiling of mitochondria isolated from NCI 929. Type of experiment: cell-based. To be noted: isolated mitochondria of NCI 929. The text has this: As another test of the ability of BH3 profiling to detect in vivo Mcl-1 dependence, the cancer cell line NCI 929 (obtained from ATCC) is examined. Mitochondria are isolated from this cell line and exposed to the panel of BH3 peptides in Table 1 and to compounds of Formula I or Formula II. MOMP is quantitated by JC-1 fluorescence and cytochrome c release is quantitated by ELISA as described in Examples 4 and 5. NCI 929 cells are sensitive to treatment with compounds of Formula I or Formula II in vitro. […] On the other hand, treatment of the mitochondria with compounds of Formula I or Formula II induces MOMP as measured by a decrease in the red JC-1 aggregate fluorescence and as measured by an increase in cytochrome c release. This provides support that compounds of formula identified Formula I or Formula II can substitute for Noxa in the mitochondrial BH3 profiling assay and that the mitochondrial response to these compounds is a powerful predictor of what cells are sensitive to Mcl-1 inhibiting drugs in vitro and in vivo.

These results are taken from patent US9345700B2, “Compositions and methods useful for treating diseases” (Eutropics Pharmaceuticals, Inc., priority 2011, dated 2016).

Entries after “also recorded” stand apart in the source; their conditions may differ.

As for `O=C(Nc1cccnc1)c1cc(-c2ccco2)nc2ccc(-c3ccc4scnc4c3)cc12` [Compound 18, 6-(benzo[d]thiazol-5-yl)-2-(furan-2-yl)-N-(pyridin-3-yl)quinoline-4-carboxamide], in the experiment on SUDHL-6, the “release of cytochrome c in SUDHL-6” value was “activity; also recorded: cause release of cytochrome c”. Besides, in the experiment with SUDHL-10, the “release of cytochrome c in SUDHL-10” value is “lack of activity and not”.
For `O=C(Nc1cccnc1)c1cc(-c2cn[nH]c2)nc2ccc(-c3ccccc3)cc12` [Compound 38, 6-phenyl-2-(1H-pyrazol-4-yl)-N-(pyridin-3-yl)quinoline-4-carboxamide], in the experiment with SUDHL-6, the “release of cytochrome c in SUDHL-6” value is “activity; also recorded: cause release of cytochrome c”. In addition, the “release of cytochrome c in SUDHL-10” value in the experiment on SUDHL-10 is “lack of activity and not”.
As to `O=C(Nc1cccnc1)c1cc(-c2cnn(C3CCCCO3)c2)nc2ccc(-c3ccccc3)cc12` (stereo not drawn) [Compound 37, 6-phenyl-N-(pyridin-3-yl)-2-(1-(tetrahydro-2H-pyran-2-yl)-1H-pyrazol-4-yl)quinoline-4-carboxamide], in the experiment with SUDHL-6, the “release of cytochrome c in SUDHL-6” value is recorded as “activity; also recorded: cause release of cytochrome c”. In addition, the “release of cytochrome c in SUDHL-10” value in the experiment with SUDHL-10 is “lack of activity and not”.
Regarding `O=C(Nc1ccccc1)c1cc(-c2ccco2)nc2ccc(-c3ccc4scnc4c3)cc12` [Compound 33, 6-(benzo[d]thiazol-5-yl)-2-(furan-2-yl)-N-phenylquinoline-4-carboxamide], the “release of cytochrome c in SUDHL-6” value in the experiment on SUDHL-6 is reported as “activity; also recorded: cause release of cytochrome c”. Also, the “release of cytochrome c in SUDHL-10” value in the experiment on SUDHL-10 was “lack of activity and not”.
Turning to “Bad: Bcl-xL reactive BH3 domain peptide Bad from the Table 1 panel (LWAAQRYGRELRRMSDEFEGSFKGL)”, the “mitochondrial response to BH3 peptide” value in experiment [1] was “lacking a response”.
